# Earlier results as cited in publication PMC3212850 (ACS Medicinal Chemistry Letters, 2011).
# System: cell lines
substance,measurement,value
apratoxin B,activity relative to apratoxin A,reduces activity
